Assay results taken from US20150196612A1, “Anti-enterovirus 71 steroidal saponins and their preparation” (Shanghai University of Traditional Chinese Medicine, priority 2014, published 2015).

Key:
enterovirus 71 (EV71) = experiment: anti-EV71 activity (antiviral bioassay); assay type: cell-based
[1] = system: respiratory syncytial virus (RSV); conditions: read-out: IC50, inhibitory effects on RSV; cited from earlier work
[2] = cytotoxicity (CC50) of steroidal saponins

SMILES: C[C@H]1CC[C@@]2(OC1)O[C@H]1C[C@H]3[C@@H]4CC[C@@H]5C[C@@H](O)CC[C@]5(C)[C@H]4CC[C@]3(C)[C@H]1[C@@H]2C [compound 8, Sarsasapogenin, reference compound]
- anti-EV71 activity of compounds (in words) (enterovirus 71 (EV71); FIG. 6): completely inactive

SMILES: C[C@H]1CC[C@@]2(OC1)O[C@H]1C[C@H]3[C@@H]4CC[C@@H]5C[C@@H](O[C@@H]6O[C@H](CO)[C@H](O)[C@H](O)[C@H]6O[C@@H]6O[C@H](CO)[C@@H](O)[C@H](O)[C@H]6O)CC[C@]5(C)[C@H]4CC[C@]3(C)[C@H]1[C@@H]2C [compound 7, timosaponin A-III]
- IC50 (enterovirus 71 (EV71); FIG. 6, read-out: IC50 (50% inhibitory concentration), anti-EV71): 1.06 µM
- IC50 [1]: 1 µM

SMILES: C[C@@H](CC[C@@]1(O)O[C@H]2C[C@H]3[C@@H]4CC[C@@H]5C[C@@H](O[C@@H]6O[C@H](CO)[C@H](O)[C@H](O)[C@H]6O[C@@H]6O[C@H](CO)[C@@H](O)[C@H](O)[C@H]6O)CC[C@]5(C)[C@H]4CC[C@]3(C)[C@H]2[C@@H]1C)CO[C@@H]1O[C@H](CO)[C@@H](O)[C@H](O)[C@H]1O [compound 2, timosaponin B-II]
- Selective Index (SI) (enterovirus 71 (EV71); FIG. 6): 92.876
- IC50 as percentage of that of positive control ribavirin (enterovirus 71 (EV71); relative to ribavirin): 1%
- selectivity index relative to ribavirin's (enterovirus 71 (EV71); relative to ribavirin): more than 40 times
- CC50 [2]: 401 µM

SMILES: NC(=O)c1ncn([C@@H]2O[C@H](CO)[C@@H](O)[C@H]2O)n1 [Ribavirin, ribavirin, reference compound]
- Selective Index (SI) (enterovirus 71 (EV71); FIG. 6): 2.365

SMILES: CC1=C(CCC(C)CO[C@@H]2O[C@H](CO)[C@@H](O)[C@H](O)[C@H]2O)O[C@H]2CC3C4CCC5CC(O[C@@H]6O[C@H](CO)[C@H](O)[C@H](O)[C@H]6O[C@@H]6O[C@H](CO)[C@@H](O)[C@H](O)[C@H]6O)CC[C@]5(C)C4CC[C@]3(C)[C@@H]12 (stereo partly drawn) [compound 3, anemarsaponin B]
- anti-EV71 activity of compounds (in words) (enterovirus 71 (EV71); FIG. 6): completely inactive
